Tests used:
[1] = system: human retinal epithelial cells (HREC); assay: Survival of HRECs in high glucose (Annexin V/PI, flow cytometry); format: cell-based; conditions: for survival ratio for HRECs (Q3): 24 hours
Description: Methods of HREC culture useful in the studies of the present invention are known. See generally, Li B, Tang S B, Zhang G, Chen J H, Li B J. Culture and characterization of human retinal capillary endothelial cell. Chin Ophthal Res 2005; 23: 20-2; Premanand C, Rema M, Sameer M Z, Sujatha M, Balasubramanyam M. Effect of curcumin on proliferation of human retinal endothelial cells under in vitro conditions. Invest Ophthalmol Vis Sci 2006; 47: 2179-84.
Briefly, HREC cells were divided into three groups: a normal control group; a group administered 30 mM glucose; and a group administered 30 mM glucose+D-Arg-2′,6′-Dmt-Lys-Phe-NH2. Survival of HRECs in high glucose co-treated with different concentrations of D-Arg-2′,6′-Dmt-Lys-Phe-NH2 (10 nM, 100 nM, 1 μM, 10 μM) was measured using an Annexin V+PI assay and flow cytometry. See generally, Koopman, G., Reutelingsperger, C. P., Kuijten, G. A. M., Keehnen, R. M. J., Pals, S. T., and van Oers, M. H. J. 1994. Annexin V for flow cytometric detection of phosphatidylserine expression on B cells undergoing apoptosis. Blood 84: 1415; Homburg, C. H., de Haas, M., von dem Borne, A. E., Verhoeven, A. J., Reutelingsperger, C. P., and Roos, D. 1995. Human neutrophils lose their surface Fc gamma RIII and acquire Annexin V binding sites during apoptosis in vitro. Blood 85: 532; Vermes, I., Haanen, C., Steffens-Nakken, H., and Reutelingsperger, C. 1995. A novel assay for apoptosis—flow cytometric detection of phosphatidylserine expression on early apoptotic cells using fluorescein labelled Annexin V. J. Immunol. Meth. 184: 39; Fadok, V. A., Voelker, D. R., Campbell, P. A., Cohen, J. J., Bratton, D. L., and Henson, P. M. 1992. Exposure of phosphatidylserine on the surface of apoptotic lymphocytes triggers specific recognition and removal by macrophages. J. Immunol. 148: 2207.
The survival of HRECs in high glucose co-treated with D-Arg-2′,6′-Dmt-Lys-Phe-NH2 was tested at 24 h and 48 h.

[2] = system: primary human retinal pigment epithelial (RPE) cells; assay: Viability of primary RPE cells exposed to tBHP (MTT); format: cell-based; conditions: preincubated 4 h with different concentrations, then tBHP 6 h
Description: Next, the viability of primary RPE cells was tested in the presence of tBHP and various concentrations of D-Arg-2′,6′-Dmt-Lys-Phe-NH2. Cells were plated at 10,000 cells per well in a 96-well plate and cultured for 24 h, then starved for 24 h. After that, cells were exposed to increasing concentrations of tBHP (FIG. 23A), or preincubated for 4 h with different concentrations of D-Arg-2′,6′-Dmt-Lys-Phe-NH2, then stimulated with tBHP for 6 h (FIG. 23B). […] Intracellular ROS production in three groups of RPE cells was also examined using FACS analysis. […] Three different concentration of D-Arg-2′,6′-Dmt-Lys-Phe-NH2 groups were analyzed. The ratio of red to green in 500 μM tBHP for the 3 h group is 1.08, the ratio of red to green in 10 nM D-Arg-2′,6′-Dmt-Lys-Phe-NH2 for 4 h+500 tBHP for 3 h group is 1.25; the ratio of red to green in 100 nM D-Arg-2′,6′-Dmt-Lys-Phe-NH2 for 4 hr+500 μM tBHP for 3 h group is 1.4; and the ratio of red to green in 1 μM D-Arg-2′,6′-Dmt-Lys-Phe-NH2 for 4 h+500 μM tBHP for 3 h group is […]. […] FIG. 33A: Control group, R/G is 3.63±0.24; FIG. 33B: 500 μM tBHP for 3 h group, R/G is 1.08±0.11; FIG. 33C: 1 μM D-Arg-2′,6′-Dmt-Lys-Phe-NH2 for 4 h+500 μM tBHP for 3 h group, R/G is 2.38±0.18. FIG. 33D is a chart comparing the fluorescence ratio for the different groups. *P<0.01, C vs. B.

[3] = system: streptozocin diabetic rats; assay: Quantitative MRI of the retina in diabetic rats; format: in vivo, SD rats
Description: 7, issue 1. Glycated hemoglobin and retinal thickness ex vivo (histology) will also be measured in control, diabetic groups and D-Arg-2′,6′-Dmt-Lys-Phe-NH2 treatment groups.
Diabetes is induced with intraperitoneal injection of streptozocin (60 mg/kg) within 5 minutes of its preparation in 0.01 M citrate buffer (pH 4.5) in male SD rats with body weights of approximately 200 g after overnight fast. Diabetes is verified 3 days later by the presence of plasma hyperglycemia (>300 mg/dl) and elevated urine volume (more than 60 ml/d) in nonfasted rats. Rat body weight and blood glucose levels are monitored weekly. Subtherapeutic levels of insulin (0-2 U neutral protamine Hagedorn insulin administered subcutaneously daily) is administered to maintain blood glucose levels between 450 and 550 mg/dl without urine ketones. Glycated hemoglobin is measured after 2 months of diabetes (Glyco-Tek affinity columns, kit 5351; Helena Laboratories, Beaumont, Tex.).
Nine month old diabetic rats are treated with D-Arg-2′,6′-Dmt-Lys-Phe-NH2 by injection, either intraperitoneal (IP) or subcutaneous (SC), with 1, 5, or 10 mg/kg D-Arg-2′,6′-Dmt-Lys-Phe-NH2. Injections are once/day. After 7 days of treatment, the retinas of the rats in the treatment and control groups are evaluated.
Male SD rats are examined by MRI by the methods of Berkowitz et al. Central retinal thickness at 2, 3, 4, 6, and 9 months after induction of diabetes is measured, and in age-matched non-diabetic controls. At day 7 after D-Arg-2′,6′-Dmt-Lys-Phe-NH2 treatment, rats are again evaluated via MRI according to the methods of Berkowitz et al.

Substance: D-Arg-2′,6′-Dmt-Lys-Phe-NH2
- survival ratio for HRECs (Q3) ([1]; 10 nM co-treatment with 30 mM glucose): 84.3%
- survival ratio for HRECs (Q3) ([1]; 100 nM co-treatment with 30 mM glucose): 90.7%
- survival ratio for HRECs (Q3) ([1]; 1 μM co-treatment with 30 mM glucose): 92.8%
- survival ratio for HRECs (Q3) ([1]; 10 μM co-treatment with 30 mM glucose): 94.3%
- survival of HRECs in high glucose ([1]; co-treatment, tested at 24 h and 48 h): significantly improved
- cell viability in response to tBHP [2]: enhanced
- Apparent diffusion coefficient ([3]; 1 mg/kg IP or SC injection): N to N+
- Intraretinal water content ([3]; 1 mg/kg IP or SC injection): N to N+
- Retinal thickness ([3]; 1 mg/kg IP or SC injection): N to N+
- Apparent diffusion coefficient ([3]; 5 mg/kg IP or SC injection): N to N+
- Intraretinal water content ([3]; 5 mg/kg IP or SC injection): N to N+
- Retinal thickness ([3]; 5 mg/kg IP or SC injection): N to N+
- Apparent diffusion coefficient ([3]; 10 mg/kg IP or SC injection): N to N+
- Intraretinal water content ([3]; 10 mg/kg IP or SC injection): N to N+
- Retinal thickness ([3]; 10 mg/kg IP or SC injection): N to N+

— patent US20180296630A1, “METHODS AND COMPOSITIONS FOR PREVENTING OR TREATING OPHTHALMIC CONDITIONS” (Stealth BioTherapeutics Corp, priority 2012, published 2018)
